Source: US9096591B2, “Tetracyclic compounds” (Medivation Technologies, Inc., priority 2007, dated 2015)
Where two headings read alike, the source gives them in different places. Each block holds one molecule with its values, some of them ahead of it.

Columns and labels:
[1] = system: synaptosomes of cortex of rat brain; assay: Glutamate-induced 45Ca2+ uptake into synaptosomes; type: biochemical, Wistar rats; conditions: for glutamate-induced 45Ca2+ uptake into synaptosomes of rat cortex, % of control: 50-100 μM; for % Ca of control (control-100%), glutamate-induced 45Ca2+ uptake into synaptosomes: rat cortex synaptosomes
Description: Synaptosomes were obtained from cerebral cortex of newborn (9-10 days) Wistar rats using standard Hajos method. The brain was homogenized with 10 volumes of cooled 0.32 M sucrose at 900 rpm. The homogenate was centrifuged at 1500 g for 10 min. and the resulted supernatant was centrifuged at 10000 g for 20 min. The radioactive label was accumulated by suspension of the synaptosomal P2-fraction in the incubation buffer A having the following composition: 132 mM NaCl, 5 mM KCl, 5 mM HEPES, 10 mM glucose, pH 7.4 (protein concentration of approximately 1.5-2 mg/ml). The mixture was further incubated for 5 min with 200 μM glutamate at 37° C. and then ^45Ca^2+ uptake was stopped by filtration through GF/B filters (Whatman, England) followed by three washes with cold buffer B (145 mM KCl, 10 mM Tris, 5.4 mM Trilon B, pH 7.4). The radioactivity probes were analyzed by fluid scintillation beta-analyzer (TriCarb, Perkin Elmer). All tests were performed in three parallel trials in 2-3 independent experiments. The amount of ^45Ca^2+ uptake was estimated by calculating the difference of radioactive label during the stimulation with glutamate and without the stimulation with agonist.
Specific ^45Ca^2+ uptake was estimated using the following equation: K(43/21)=[(Ca4−Ca3)/(Ca2−Ca1)]100%, where
Ca1—^45Ca^2+ uptake for the Control (without glutamate and the compound tested),
[…] glutamate-induced ^45Ca^2+ uptake (glutamate only),
Ca3—^45Ca^2+ uptake in the presence of the compound tested (without glutamate),
Ca4—^45Ca^2+ uptake in the presence of glutamate and the testing compound.
Statistical analysis of the results was performed using Student's t-test.

[2] = system: AMPA receptors; assay: AMPA-receptor activity: kainic acid-induced currents in Purkinje cells (patch-clamp); type: cell-based, rat; conditions: mean±SEM, control=100%
Description: The analysis of effects of the testing compounds on AMPA receptors was carried out using an electrophysiological patch-clamp method in whole cell configuration (Hamill et al., 1980) of the Purkinje cell fresh isolated from the cerebellum of juvenile rats (12-15 days). The isolation was carried out using a modified method (Kaneda et al., 1988) in which cerebral 400-600 μm sections were incubated for 60 min in the temperature controlled chamber in 10 mL of buffer solution (150 mM NaCl, 5 mM KCl, 2 mM CaCl2, 2 mM MgSO4.7H2O, 10 mM HEPES, 15 mM glucose, pH 7.42). The incubation solution was exchanged with the incubation buffer with pronase (2 mg/mL) and collagenase (1 mg/mL) for 70 min. After a 20 min wash with the original buffer, all sections were placed into the Petri dish and were separated using a Pasteur pipette. All solutions were constantly aerated with 100% O2 at 34° C. The composition of extracellular saline was: 150 mM NaCl, 5 mM KCl, 2.6 mM CaCl2, 2 mM MgSO4.7H2O, 10 mM HEPES, 15 mM glucose, pH 7.36. The transmembrane current was induced as a result of the activation of AMPA receptors by a superfusion with the agonist solution (kainic acid). The currents were measured using borosilicate microelectrodes (resistance […]) filled with 100 mM KCl, 11 mM EGTA, 1 mM CaCl2, 1 mM MgCl2, 10 mM HEPES, 5 mM ATP, pH 7.2. The currents were registered using EPC-9 (HEKA, Germany) and recorded with Pulse software package which was also purchased from HEKA. The analysis of observations was carried out using Pulsefit (HEKA, Germany) and the statistical significance was analyzed using a Student's T-test criteria. Data are presented as mean±SEM in % of control values.
Compounds of the invention were tested in 3-5 neurons. Every concentration of compound was repeated three-four times in every neuron. Data are presented as mean±SEM in % of Control values (Table 13+14, FIGS. 8-12). Control value=100%.

[3] = system: rat brain mitochondria; assay: Ca2+-induced swelling of mitochondria (MPT pore opening); type: biochemical, Wistar rats; conditions: for A540 increase in mitochondrial suspension after addition of 100 μM of compound: 100 μM compound
Description: Rat liver and brain mitochondria were prepared from male Wistar rats. The rats were euthanized in a CO2 chamber followed by decapitation the procedure being in compliance with the Guidelines for Animal Experiments at IPAC RAS. […]
Brain mitochondria were isolated from the pooled forebrains of two rats. The modified method of Sims was used to isolate and purify brain mitochondria in a Percoll gradient. The brain was homogenized in “buffer A” (225 mM mannitol, 75 mM sucrose, 5 mM HEPES, 1 mM EGTA, pH 7.4 [KOH]) and centrifuged for 10 min at 1300 g. The supernatant was centrifuged for 10 min at 10000 g, and then the pellet was suspended in 15% Percoll and layered on a discontinuous gradient consisting of 40 and 23% Percoll, respectively, which was then centrifuged for 10 min at 30000 g without using brakes. The mitochondria were collected from the interface of the lower two layers and after resuspension in “buffer A”, the suspension was centrifuged at 16600 g for 10 min, then the pellet was resuspended in “buffer A”, BSA (10 mg/mL) was added to bind free fatty acids; and the suspensions was centrifuged again at 6300 g for 10 min. Following centrifugation the pelleted mitochondria were re-suspended in isolation medium without EGTA to achieve a protein concentration of 15-20 mg/ml.
Mitochondrial swelling caused by influx of solutes through open PT pores results in an increase in light transmission (i.e., a reduced turbidity). This turbidity change offers a convenient and frequently used assay of the MPT by measurement of absorbance in mitochondrial suspensions. In the present study, the MPT induced by Ca^2+ and inorganic phosphate (Ca/Pi) was monitored by absorbance changes at 540 nm in a cuvette in a Beckman DU 640 spectrophotometer in 1 ml of buffer A plus 0.8 μM rotenone, 5 mM succinate, 1 mM KH2PO4 and 0.5 mg or 0.2 mg protein of isolated liver or brain mitochondria, accordingly. Reaction was started by the addition of triggering agent (Ca^2+). Pre-treatment and reaction were performed at 30° C. Swelling rate was quantified as ΔA540/min/mg, calculated, in all cases, from a tangent to the steepest portion of the plot of A540 versus time.
Ca^2+-induced Swelling of mitochondria was used as the primary screening test for compounds influence on MPT pore opening. […] But the inhibition of swelling may be connected not only with direct inhibition of MPT pore opening but also with the impairment of respiratory function of mitochondria and with the compounds action on calcium transport into mitochondria. For the primary estimation of these possibilities the mitochondrial membrane potential and calcium retention capacity of mitochondria were measured. […] New synthesized compounds (except C-14 and C-43) alone induced an increase of brain mitochondria suspension turbidity. The mechanism of such effect needs additional investigations.

[4] = system: rat brain mitochondria; assay: Mitochondrial membrane potential (safranine test); type: biochemical, Wistar rats; conditions: at concentrations up to 100 mkM
Description: The same experimental conditions were used for the assessment of alterations of the mitochondrial membrane potential, except that safranine was included in incubation medium at a final concentration of 10 mkM and succinate was added before the compounds of the invention. This concentration of safranine was determined before hand as the optimal compromise between signal/baseline ratio and interference of safranine itself with swelling induced by Ca/Pi (safranine tended to enhance Ca/Pi-induced swelling at concentrations above 20 mkM). Changes in the status of the mPT pore were assessed spectrophotometrically at 554 and 524 nm in a cuvette in a Beckman DU 640 spectrophotometer. A554-524 represents the characteristics of mitochondrial potential and A554-characteristics of mitochondrial swelling.

[5] = concentration reducing to 50% the initial rate of turbidity fall after calcium addition, read-out: IC50, decrease of calcium-induced swelling of brain mitochondria
[6] = read-out: IC50, Ca2+-induced (25-50 μM) swelling of brain mitochondria, rat brain mitochondria, Ca2+ 25-50 μM

SMILES: CN1CCc2c(c3ccccc3n2CCc2nc(-c3ccncc3)cs2)C1 [Compound C1-4]
inhibition of glutamate-induced 45Ca2+ uptake into synaptosomes ([1]; 0.5 μM): ~12.6%
glutamate-induced 45Ca2+ uptake into synaptosomes of rat cortex, % of control [1]: ~131%
% Ca of control (control-100%), glutamate-induced 45Ca2+ uptake into synaptosomes ([1]; compound 0.1 μM): 99.1 ± 2.5%
% Ca of control (control-100%), glutamate-induced 45Ca2+ uptake into synaptosomes ([1]; compound 0.5 μM): 87.4 ± 3.7%
% Ca of control (control-100%), glutamate-induced 45Ca2+ uptake into synaptosomes ([1]; compound 1 μM): 96.2 ± 5.0%
% Ca of control (control-100%), glutamate-induced 45Ca2+ uptake into synaptosomes ([1]; compound 5 μM): 94.9 ± 5.7%
% Ca of control (control-100%), glutamate-induced 45Ca2+ uptake into synaptosomes ([1]; compound 10 μM): 94.3 ± 2.7%
% Ca of control (control-100%), glutamate-induced 45Ca2+ uptake into synaptosomes ([1]; compound 50 μM): 112.7 ± 10.1%
% Ca of control (control-100%), glutamate-induced 45Ca2+ uptake into synaptosomes ([1]; compound 100 μM): 131.5 ± 0.1%
kainic acid-induced currents in Purkinje cells, % of Control values ([2]; compound 10^−5 M): 100 ± 9%
kainic acid-induced currents in Purkinje cells, % of Control values ([2]; compound 10^−6 M): 109 ± 12%
kainic acid-induced currents in Purkinje cells, % of Control values ([2]; compound 10^−7 M): 114 ± 5%
kainic acid-induced currents in Purkinje cells, % of Control values ([2]; compound 10^−8 M): 119 ± 6%
kainic acid-induced currents in Purkinje cells, % of Control values ([2]; compound 10^−9 M): 129 ± 9%
IC50 [3, 5]: ~94 µM
A540 increase in mitochondrial suspension after addition of 100 μM of compound ([3]; rat brain mitochondria): 1 rel.units
IC50 [3, 6]: 93.9 ± 16.4 µM
depolarization of brain mitochondria [4]: No depolarization

SMILES: CN1CCc2c(c3ccccc3n2CCc2noc(-c3ccncc3)n2)C1 [Compound C4-3]
concentration at which glutamate-induced 45Ca2+ uptake into synaptosomes was not affected [1]: 0.1 to 50 µM
glutamate-induced 45Ca2+ uptake into synaptosomes of rat cortex, % of control [1]: ~126%
% Ca of control (control-100%), glutamate-induced 45Ca2+ uptake into synaptosomes ([1]; compound 0.1 μM): 93.2 ± 3.0%
% Ca of control (control-100%), glutamate-induced 45Ca2+ uptake into synaptosomes ([1]; compound 0.5 μM): 92.1 ± 3.3%
% Ca of control (control-100%), glutamate-induced 45Ca2+ uptake into synaptosomes ([1]; compound 1 μM): 101.0 ± 1.0%
% Ca of control (control-100%), glutamate-induced 45Ca2+ uptake into synaptosomes ([1]; compound 5 μM): 93.7 ± 6.8%
% Ca of control (control-100%), glutamate-induced 45Ca2+ uptake into synaptosomes ([1]; compound 10 μM): 94.7 ± 6.9%
% Ca of control (control-100%), glutamate-induced 45Ca2+ uptake into synaptosomes ([1]; compound 50 μM): 117.9 ± 6.0%
% Ca of control (control-100%), glutamate-induced 45Ca2+ uptake into synaptosomes ([1]; compound 100 μM): 125.6 ± 3.9%
kainic acid-induced currents in Purkinje cells, % of Control values ([2]; compound 3 × 10^−5 M): 80 ± 10%
kainic acid-induced currents in Purkinje cells, % of Control values ([2]; compound 10^−5 M): 100 ± 6%
kainic acid-induced currents in Purkinje cells, % of Control values ([2]; compound 10^−6 M): 139 ± 11%
kainic acid-induced currents in Purkinje cells, % of Control values ([2]; compound 10^−7 M): 149 ± 15%
kainic acid-induced currents in Purkinje cells, % of Control values ([2]; compound 10^−8 M): 145 ± 12%
kainic acid-induced currents in Purkinje cells, % of Control values ([2]; compound 10^−9 M): 100 ± 3%
IC50 [3, 5]: ~76 µM
A540 increase in mitochondrial suspension after addition of 100 μM of compound ([3]; rat brain mitochondria): 1 rel.units
IC50 [3, 6]: 76 ± 12 µM
depolarization of brain mitochondria [4]: No depolarization

SMILES: Cc1ccc2c(c1)c1c(n2CCc2nc(-c3ccccc3)cs2)CCN(C)C1 [Compound G8-c, 2,8-Dimethyl-5-[2-(4-phenylthiazol-2-yl)ethyl]-2,3,4,5-tetrahydro-1H-pyrido[4,3-b]indole]
melting point: 148.5 to 149 °C

SMILES: CN1CCc2c(c3cc(F)ccc3n2CCc2nc(-c3ccccc3)cs2)C1 [Compound G8-f, 8-Fluoro-2-methyl-5-[2-(4-phenylthiazol-2-yl)ethyl]-2,3,4,5-tetrahydro-1H-pyrido[4,3-b]indole]
melting point: 136.5 to 137 °C

Second part, the molecule after the results:

melting point: 216 to 219 °C
SMILES: CN1CCc2c(c3cc(Cl)ccc3n2CCc2n[nH]c(=S)n2C)C1 [Compound G11-b, 5-[2-(8-Chloro-2-methyl-2,3,4,5-tetrahydro-1H-pyrido[4,3-b]indol-5-yl)ethyl]-4-methyl-2,4-dihydro-1,2,4-triazole-3-thione]

melting point: 215 to 218 °C
SMILES: CN1CCc2c(c3cc(F)ccc3n2CCc2n[nH]c(=S)n2C)C1 [Compound G11-c, 5-[2-(8-Fluoro-2-methyl-2,3,4,5-tetrahydro-1H-pyrido[4,3-b]indol-5-yl)ethyl]-4-methyl-2,4-dihydro-1,2,4-triazole-3-thione]

melting point: 219 to 222 °C
SMILES: COc1ccc2c(c1)c1c(n2CCc2n[nH]c(=S)n2C)CCN(C)C1 [Compound G11-d, 5-[2-(8-Methoxy-2-methyl-2,3,4,5-tetrahydro-1H-pyrido[4,3-b]indol-5-yl)ethyl]-4-methyl-2,4-dihydro-1,2,4-triazole-3-thione]
